Holding throughout (details): route oral
Test [1] has as its system Rattus norvegicus. In words: Percentage decrease in systolic blood pressure after 6 hr at 30 mg/kg administered perorally in rats. The format is functional, Artery.
The test system of test [2] is Rattus norvegicus. In words: percentage decrease in heart rate after 6 hr at a dose of 30 mg/kg administered perorally in rats. Type of test: functional.
Test [3] has as its system Rattus norvegicus. In words: percentage decrease in heart rate after 1 hr at a dose of 30 mg/kg administered perorally in rats. Type of test: functional.
The test system of test [4] is Rattus norvegicus. Description: Percentage decrease in systolic blood pressure after 4 hr at 30 mg/kg administered perorally in rats. Type of test: functional, Artery.
The test system of test [5] is Rattus norvegicus. Description: Percentage decrease in systolic blood pressure after 4 hr at 300 mg/kg administered perorally in rats. The format is functional, Artery.
Test [6] concerns Rattus norvegicus. Description: percentage decrease in heart rate after 4 hr at a dose of 100 mg/kg administered perorally in rats. Type of test: functional.
For test [7], the system named is Rattus norvegicus. Description: Percentage decrease in systolic blood pressure after 1 hr at 30 mg/kg administered perorally in rats. The format is functional, Artery.
The test system of test [8] is Rattus norvegicus. Description: percentage decrease in heart rate after 4 hr at a dose of 30 mg/kg administered perorally in rats. Type of test: functional.
Test [9] has as its system Rattus norvegicus. Description: percentage decrease in heart rate after 4 hr at a dose of 300 mg/kg administered perorally in rats. Type of test: functional.
Test [10] relates to Rattus norvegicus. Description: Percentage decrease in systolic blood pressure after 24 hr at 30 mg/kg administered perorally in rats. The format is functional, Artery.
For test [11], the system named is Rattus norvegicus. Description: percentage decrease in heart rate after 24 hr at a dose of 30 mg/kg administered perorally in rats. Type of test: functional.
In test [12] the test system is Rattus norvegicus. In words: Percentage decrease in systolic blood pressure after 4 hr at 100 mg/kg administered perorally in rats. The format is functional, Artery.

Regarding `CCCCCC(C)C(C)c1cc(O)c2c(c1)OC(C)(C)C1CCN(C(=O)CN3CCOCC3)C=C21` (configuration not stated), the “Decrease in Systolic blood pressure” value in [1] is recorded as -1%; in [4], -5%; in [5], 26%; in test [7], -8%; in test [10], -6%; in test [12] it was 23%. Further, the Heart rate in test [2] is given as 0%; in [3], -16%; in test [6] it was 5%; in [8], 6%; in test [9] it was 9%; in test [11] it was 14%.

(Values after ChEMBL document CHEMBL1122324, “New antihypertensive cannabinoids” (1983).)
